“And” between values parts separate entries of the source, which are not always exact repeats. Equal values may be shown once.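 Results reflect a 48-hour exposure of cells in 96-well plates to compound at five concentrations. Abbreviation: GI50, concentration required for 50% inhibition of growth. Definition used: TGI = concentration required for complete inhibition of growth.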

Some test systems named below: SK-MEL-5 melanoma; CAKI-1 renal; OVCAR-4 ovarian; RPMI-8226 leukemia; MALME-3M melanoma; UACC-62 melanoma; HCT-116 colon; A498 renal.
Common to all, as to assay: NCI-60 cell line screen, 48 h

For `CCOC(=O)/C(C#N)=C/c1[nH]c(C(=O)OCc2ccccc2)c(C)c1C`, the TGI in the experiment on SK-MEL-5 melanoma, in the experiment on CAKI-1 renal, in the experiment with OVCAR-4 ovarian, with RPMI-8226 leukemia, in the experiment with MALME-3M melanoma and with UACC-62 melanoma was more than 100 µM each time.
In the case of `COc1cc(Nc2nc3ccccc3nc2-c2cccs2)cc(OC)c1OC`, the TGI in the experiment on HCT-116 colon, with RPMI-8226 leukemia, in the experiment on MALME-3M melanoma and in the experiment on UACC-62 melanoma was more than 100 µM in each case.
On to `O=C(O)C(CS)Nc1c2ccccc2nc2ccccc12` (centres undefined), for which the TGI in the experiment with CAKI-1 renal is more than 100 µM; in the experiment with OVCAR-4 ovarian it was 47.1 µM; in the experiment on RPMI-8226 leukemia it was more than 100 µM; with MALME-3M melanoma, more than 100 µM.
Consider `N#CSC1CCCCNC1=O` (centres undefined), for which the TGI in the experiment on CAKI-1 renal was 31.8 µM; in the experiment with HCT-116 colon it was more than 100 µM; in the experiment on RPMI-8226 leukemia, 29.3 µM; with MALME-3M melanoma, 31.4 µM; in the experiment on UACC-62 melanoma, 29.1 µM.
For `NC12CC3CC(C1)CC(C(=O)O)(C3)C2`, the TGI in the experiment on SK-MEL-5 melanoma, with CAKI-1 renal, in the experiment with A498 renal, in the experiment on OVCAR-4 ovarian, with HCT-116 colon and with RPMI-8226 leukemia was more than 100 µM in each case. The TGI in the experiment on UACC-62 melanoma is more than 100 µM.
On to `O=C1NC(=O)C(CCC(=O)c2ccc3ccccc3c2)C(=O)N1`, for which the TGI with SK-MEL-5 melanoma, in the experiment on CAKI-1 renal, in the experiment with A498 renal, in the experiment with OVCAR-4 ovarian, in the experiment on HCT-116 colon and in the experiment on MALME-3M melanoma was more than 100 µM throughout. The compound further had a TGI with UACC-62 melanoma of more than 100 µM.
With `Cc1cc(-c2cnn3c(NCC4CC(C)(O)C4)cc(Oc4cccnc4)nc23)ccc1C(=O)NC1CC1` (centres undefined), the GI50 in the experiment with SK-MEL-5 melanoma was 2.22 µM; in the experiment on CAKI-1 renal it was 1.38 µM; in the experiment on A498 renal, 0.435 µM; in the experiment on HCT-116 colon it was 0.0858 µM; in the experiment on UACC-62 melanoma it was 2.67 µM. Moreover, the TGI in the experiment on SK-MEL-5 melanoma, in the experiment on CAKI-1 renal, in the experiment with A498 renal, with HCT-116 colon and in the experiment with UACC-62 melanoma was more than 100 µM each time.
`O=[N+]([O-])c1ccc(C=NC2CCCCC2)cc1`: the TGI with SK-MEL-5 melanoma, with CAKI-1 renal, in the experiment with A498 renal, in the experiment with OVCAR-4 ovarian, in the experiment with HCT-116 colon and in the experiment on MALME-3M melanoma was more than 100 µM in each case. The TGI in the experiment on UACC-62 melanoma is more than 100 µM.
For `O=C(CC1C(=O)NN(c2ccc(Br)cc2)C1=O)c1cc(O)ccc1O` (centres undefined), the GI50 in the experiment on SK-MEL-5 melanoma is 18.6 µM; in the experiment with CAKI-1 renal, 14.4 µM; in the experiment with A498 renal it was more than 50 µM; with OVCAR-4 ovarian, 30.6 µM; in the experiment with HCT-116 colon, 26.2 µM; with RPMI-8226 leukemia, 16.5 µM. Besides, the GI50 in the experiment on UACC-62 melanoma was 12 µM. Also, the TGI in the experiment with SK-MEL-5 melanoma was more than 50 µM; in the experiment with CAKI-1 renal it was 35.7 µM; with A498 renal it was more than 50 µM; with OVCAR-4 ovarian, more than 50 µM; in the experiment with HCT-116 colon it was more than 50 µM; in the experiment on RPMI-8226 leukemia, more than 50 µM. The compound further registered a TGI in the experiment with UACC-62 melanoma of 27.7 µM.
For the compound `CN(C)CCNC(=O)c1cccc2ccc(-c3ccncc3)nc12`, the TGI in the experiment with SK-MEL-5 melanoma came to 3.54 µM; in the experiment on CAKI-1 renal, 5.21 µM; in the experiment on A498 renal, 4.34 µM; in the experiment on OVCAR-4 ovarian it was 15 µM; in the experiment with HCT-116 colon, 4.71 µM; in the experiment on UACC-62 melanoma, 3.73 µM.
For the compound `CCOC1Oc2ccc(C)cc2C(=O)/C1=C\Nc1ccc(C(N)=O)cc1` (centres undefined), the GI50 in the experiment with SK-MEL-5 melanoma was 13.8 µM; with CAKI-1 renal it was 20.6 µM; in the experiment with OVCAR-4 ovarian, 99.8 µM; with HCT-116 colon, 13.4 µM; in the experiment on RPMI-8226 leukemia, 18.6 µM; with UACC-62 melanoma it was 13.6 µM. Moreover, the TGI with SK-MEL-5 melanoma is 30.2 µM; in the experiment on CAKI-1 renal, 44.8 µM; in the experiment on OVCAR-4 ovarian it was more than 100 µM; in the experiment on HCT-116 colon it was 26.2 µM; in the experiment on RPMI-8226 leukemia it was 90.5 µM; with UACC-62 melanoma it was 30.8 µM.
Regarding `C/C(CC(=O)Nc1cc(C)ccc1C)=N\NC(=O)c1ccncc1`, the TGI in the experiment on SK-MEL-5 melanoma, with HCT-116 colon, with RPMI-8226 leukemia, in the experiment on MALME-3M melanoma and with UACC-62 melanoma was more than 100 µM each time.
For the compound `O=c1cc(-c2ccccc2)oc2cc(OC/C(=N/O)c3ccccc3)ccc12`, the GI50 in the experiment with SK-MEL-5 melanoma is 20.7 µM; in the experiment on CAKI-1 renal, 12.8 µM; in the experiment on OVCAR-4 ovarian it was 30.5 µM; in the experiment on RPMI-8226 leukemia it was 6.69 µM; in the experiment on UACC-62 melanoma it was 12.7 µM. The TGI in the experiment with SK-MEL-5 melanoma, in the experiment with CAKI-1 renal, in the experiment on OVCAR-4 ovarian, in the experiment with RPMI-8226 leukemia and in the experiment on UACC-62 melanoma was more than 50 µM each time.
On to `Cc1ccc(-c2nc3nc(-c4ccccc4)nc(N4CCCNCC4)c3o2)cc1`, for which the GI50 with CAKI-1 renal is 1.73 µM; in the experiment on A498 renal, 1.53 µM; in the experiment with OVCAR-4 ovarian it was 1.59 µM; with HCT-116 colon it was 1.31 µM; in the experiment on MALME-3M melanoma, 1.85 µM; with UACC-62 melanoma, 1.68 µM. Further, the TGI in the experiment with CAKI-1 renal came to 3.22 µM; with A498 renal it was 3.13 µM; in the experiment with OVCAR-4 ovarian it was 3.09 µM; with HCT-116 colon it was 2.65 µM; in the experiment with MALME-3M melanoma it was 3.38 µM; with UACC-62 melanoma, 3.14 µM.
On to `O=C1c2ccccc2C(=O)N1CCc1ncc[nH]1`, for which the TGI with SK-MEL-5 melanoma, in the experiment on CAKI-1 renal, with HCT-116 colon, in the experiment on RPMI-8226 leukemia and with UACC-62 melanoma was more than 100 µM each time.
On to `CC(=O)O[C@H]1C(=O)[C@@]2(C)C(C(OC(=O)c3ccccc3)[C@]3(O)CC(OC(=O)[C@H](OC(=O)CCC(=O)O)C(NC(=O)c4ccccc4)c4ccccc4)C(C)=C1C3(C)C)C1(OC(C)=O)COC1C[C@@H]2O` (some centres undefined), for which the TGI in the experiment with SK-MEL-5 melanoma was 13.9 µM and 18 µM; in the experiment with CAKI-1 renal it was more than 100 µM; in the experiment with OVCAR-4 ovarian, more than 100 µM; in the experiment on HCT-116 colon, more than 100 µM; with RPMI-8226 leukemia, less than 0.01 µM; in the experiment on MALME-3M melanoma, more than 100 µM. Besides, in the experiment with MALME-3M melanoma, the GI50 was < 0.01 µM and 0.0659 µM.
As for `Nc1cccc(S(=O)(=O)NCC(=O)O)c1`, the TGI in the experiment on SK-MEL-5 melanoma, in the experiment on CAKI-1 renal, with OVCAR-4 ovarian, with HCT-116 colon, in the experiment on RPMI-8226 leukemia and in the experiment on MALME-3M melanoma was more than 100 µM each time. In addition, the TGI in the experiment on UACC-62 melanoma was more than 100 µM.
Take `O=C(N/C(=C\c1cccc([N+](=O)[O-])c1)c1nc2ccc([N+](=O)[O-])cc2[nH]1)c1ccccc1`: the TGI with SK-MEL-5 melanoma is 43.7 µM; with CAKI-1 renal, more than 100 µM; with OVCAR-4 ovarian, 66.1 µM; in the experiment with MALME-3M melanoma it was more than 100 µM; with UACC-62 melanoma it was 46.7 µM.
For `O=S(=O)(NC1=NCCN1C(=S)SN1CCn2c1nsc2=S)c1cccc(Cl)c1`, the GI50 in the experiment with SK-MEL-5 melanoma is 16.7 µM; in the experiment with CAKI-1 renal it was 6.24 µM; with A498 renal, 34.3 µM; in the experiment with OVCAR-4 ovarian, 22.2 µM; in the experiment with HCT-116 colon, 13.2 µM; in the experiment on RPMI-8226 leukemia it was 5.05 µM. In the experiment on UACC-62 melanoma, the GI50 is 15.4 µM. Moreover, the TGI is 31.9 µM in the experiment with SK-MEL-5 melanoma; 23.5 µM in the experiment with CAKI-1 renal; 81.5 µM in the experiment on A498 renal; 54.6 µM in the experiment on OVCAR-4 ovarian; 28.1 µM in the experiment on HCT-116 colon; more than 100 µM in the experiment on RPMI-8226 leukemia. The compound also displayed a TGI in the experiment with UACC-62 melanoma of 34.3 µM.
`Cc1cccc(C(C)C)c1NC(=O)/C(Cc1c([N+](=O)[O-])cccc1[N+](=O)[O-])=N/NC(=O)CC#N`: the TGI in the experiment on SK-MEL-5 melanoma, in the experiment on CAKI-1 renal, with A498 renal, in the experiment on HCT-116 colon, in the experiment with MALME-3M melanoma and in the experiment with UACC-62 melanoma was more than 100 µM in each case.
For the compound `O=C(CC1(O)C(=O)Nc2c(Cl)ccc(Cl)c21)c1ccc(F)cc1` (centres undefined), the TGI with SK-MEL-5 melanoma was 38.6 µM; with CAKI-1 renal, more than 100 µM; with OVCAR-4 ovarian, 97.9 µM; with RPMI-8226 leukemia, 47.9 µM; in the experiment on MALME-3M melanoma, more than 100 µM.
`O/N=C/c1ncccc1C1OCCO1`: the TGI with SK-MEL-5 melanoma, with CAKI-1 renal, in the experiment with OVCAR-4 ovarian, in the experiment with HCT-116 colon, in the experiment on MALME-3M melanoma and with UACC-62 melanoma was more than 100 µM throughout.
With `N#C/C(=C\c1ccc2ccccc2c1)c1ccccc1`, the TGI is 66.5 µM in the experiment with SK-MEL-5 melanoma; 50 µM in the experiment on CAKI-1 renal; 76.4 µM in the experiment on A498 renal; 69.1 µM in the experiment with OVCAR-4 ovarian; more than 100 µM in the experiment with HCT-116 colon; more than 100 µM with RPMI-8226 leukemia. The TGI in the experiment on UACC-62 melanoma was determined as 36.7 µM.
Take `COc1ccc2nc3c(C(=O)NCCN(C)C)cccc3nc2c1`: the TGI in the experiment on SK-MEL-5 melanoma is 15.7 µM; in the experiment on CAKI-1 renal, more than 100 µM; with A498 renal, 7.54 µM; in the experiment with OVCAR-4 ovarian, 29.6 µM; in the experiment with HCT-116 colon, 28.1 µM; in the experiment on UACC-62 melanoma, 21.2 µM.
Regarding `O=C(CC1(O)C(=O)Nc2ccccc21)c1ccncc1` (centres undefined), the TGI in the experiment with SK-MEL-5 melanoma, in the experiment on CAKI-1 renal, with A498 renal, in the experiment with OVCAR-4 ovarian, with HCT-116 colon and with RPMI-8226 leukemia was more than 100 µM throughout. Moreover, the TGI with UACC-62 melanoma was more than 100 µM.

The record behind these values is PubChem BioAssay (NCI).
